Measured values taken from ChEMBL document CHEMBL4417633, “Inhibitory polypeptides specific to WNT inhibitors” (2017).
pIC50: −log10 of the molar value. The source made the active and inactive calls. The rule behind the calls is not given here. Where a SMILES comes first, the peptide text is derived from it.

Tests used:
[1] = biological target: T1, Dickkopf-related protein 1 (Homo sapiens, UniProt O94907); experiment: Inhibition of human DKK1 in MC3T3E1/TetON-Wnt1/STF-Luc#5 cells assessed as DKK1 neutralizing activity by Wnt1-induced TCF/LEF luciferase reporter gene assay
T1 sequence (O94907 whole entry): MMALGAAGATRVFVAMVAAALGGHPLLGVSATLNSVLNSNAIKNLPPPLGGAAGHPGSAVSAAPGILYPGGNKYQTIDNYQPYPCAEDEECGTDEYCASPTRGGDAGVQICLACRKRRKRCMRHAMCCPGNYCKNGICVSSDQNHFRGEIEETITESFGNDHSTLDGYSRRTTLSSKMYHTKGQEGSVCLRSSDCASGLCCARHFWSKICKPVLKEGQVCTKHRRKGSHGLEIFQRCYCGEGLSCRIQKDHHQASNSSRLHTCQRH

[2] = biological target: T2, Dickkopf-related protein 1 (Homo sapiens) (UniProt O94907); experiment: (§1) Inhibition of biotin-labeled human recombinant DKK1 assessed as reduction in DKK1 interaction with LRP-6/Fc incubated overnight by chemiluminescence based Alpha-screen assay
T2 sequence (whole entry): T1 sequence (O94907 whole entry)

[3] = biological target: T3, Dickkopf WNT-signaling pathway inhibitor 1 (Rattus norvegicus) (UniProt A6I0Z0); experiment: (§2) Inhibition of biotin-labeled rat recombinant DKK1 assessed as reduction in DKK1 interaction with LRP-6/Fc incubated overnight by chemiluminescence based Alpha-screen assay
T3 sequence (whole entry): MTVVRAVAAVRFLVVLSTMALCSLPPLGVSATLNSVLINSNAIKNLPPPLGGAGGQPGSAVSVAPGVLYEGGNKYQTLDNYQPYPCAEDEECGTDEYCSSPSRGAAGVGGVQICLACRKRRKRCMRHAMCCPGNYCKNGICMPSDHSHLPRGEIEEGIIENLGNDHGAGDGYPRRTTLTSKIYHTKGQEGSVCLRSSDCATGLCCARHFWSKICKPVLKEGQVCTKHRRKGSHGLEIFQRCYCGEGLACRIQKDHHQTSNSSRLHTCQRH

[4] = biological target: T1, Dickkopf-related protein 1; experiment: as §1
[5] = biological target: T4, Dickkopf WNT-signaling pathway inhibitor 1 (Rattus norvegicus, UniProt A6I0Z0); experiment: as §2
T4 sequence (A6I0Z0 whole entry): T3 sequence (whole entry)

| pIC50 [1] | inhibition [2] | inhibition [3] | pIC50 [4] | pIC50 [5] | SMILES |
| --- | --- | --- | --- | --- | --- |
| 8.52 to 9.10 | Active | Active | – | – | CSCC[C@H](NC(=O)[C@@H]1CCCN1C(=O)[C@H](Cc1ccc(O)cc1)NC(=O)[C@H](CS)NC(=O)[C@H](Cc1cnc[nH]1)NC(=O)[C@@H]1CCCN1C(=O)[C@H](Cc1cnc[nH]1)NC(=O)[C@H](CC(N)=O)NC(=O)[C@H](CCCNC(=N)N)NC(=O)[C@H](CS)NC(=O)[C@H](CCC(N)=O)NC(=O)[C@H](Cc1ccccc1)NC(=O)[C@H](Cc1ccc(O)cc1)NC(=O)[C@H](CO)NC(=O)[C@H](CCC(=O)O)NC(=O)[C@@H]1CCCN1C(=O)[C@@H](N)CS)C(=O)N[C@@H](CCC(=O)O)C(=O)N[C@@H](Cc1c[nH]c2ccccc12)C(=O)N[C@@H](CCCNC(=N)N)C(=O)N[C@@H](CS)C(=O)N[C@@H](CC(=O)O)C(=O)NCC(=O)N[C@@H](Cc1ccccc1)C(=O)N[C@@H](CCC(=O)O)C(=O)N[C@@H](CC(=O)O)C(=O)N[C@@H](CS)C(=O)N[C@H](C(=O)N[C@@H](CC(=O)O)C(=O)NCC(=O)N[C@@H](CO)C(=O)N[C@@H](CC(=O)O)C(=O)N[C@@H](CCC(=O)O)C(=O)N[C@@H](CC(C)C)C(=O)N[C@@H](CC(=O)O)C(=O)N[C@@H](CS)C(=O)NCC(=O)NCC(=O)NCC(=O)NCC(=O)O)C(C)C (H-CPESYFQCRNHPHCYPMEWRCDGFEDCVDGSDELDCGGGG-OH) |
| 8.52 to 9.10 | Active | Active | – | – | CSCC[C@H](NC(=O)[C@@H]1CCCN1C(=O)[C@H](Cc1cnc[nH]1)NC(=O)[C@H](CS)NC(=O)[C@@H]1CCCN1C(=O)[C@@H]1CCCN1C(=O)[C@H](CC(=O)O)NC(=O)[C@H](CC(N)=O)NC(=O)[C@H](CCCNC(=N)N)NC(=O)[C@H](CS)NC(=O)[C@H](CCC(N)=O)NC(=O)[C@H](Cc1ccccc1)NC(=O)[C@H](Cc1ccc(O)cc1)NC(=O)[C@@H]1CCCN1C(=O)[C@H](C)NC(=O)[C@@H]1CCCN1C(=O)[C@@H](N)CS)C(=O)N[C@@H](CC(=O)O)C(=O)N[C@@H](Cc1c[nH]c2ccccc12)C(=O)N[C@@H](CCCNC(=N)N)C(=O)N[C@@H](CS)C(=O)N[C@@H](CC(=O)O)C(=O)NCC(=O)N[C@@H](Cc1ccccc1)C(=O)N1CCC[C@H]1C(=O)N[C@@H](CC(=O)O)C(=O)N[C@@H](CS)C(=O)N[C@H](C(=O)N[C@@H](CC(=O)O)C(=O)NCC(=O)N[C@@H](CO)C(=O)N[C@@H](CC(=O)O)C(=O)N[C@@H](CCC(=O)O)C(=O)N[C@@H](CCCCN)C(=O)NCC(=O)N[C@@H](CS)C(=O)NCC(=O)NCC(=O)NCC(=O)NCC(=O)O)C(C)C (H-CPAPYFQCRNDPPCHPMDWRCDGFPDCVDGSDEKGCGGGG-OH) |
| 8.52 to 9.10 | Active | Active | – | – | CSCC[C@H](NC(=O)[C@@H]1CCCN1C(=O)[C@H](Cc1ccc(O)cc1)NC(=O)[C@H](CS)NC(=O)[C@H](Cc1cnc[nH]1)NC(=O)[C@@H]1CCCN1C(=O)[C@H](Cc1cnc[nH]1)NC(=O)[C@H](CC(N)=O)NC(=O)[C@H](CCCNC(=N)N)NC(=O)[C@H](CS)NC(=O)[C@H](CCC(N)=O)NC(=O)[C@H](Cc1ccccc1)NC(=O)[C@H](Cc1ccc(O)cc1)NC(=O)[C@H](CO)NC(=O)[C@@H](NC(=O)[C@@H]1CCCN1C(=O)[C@@H](N)CS)C(C)C)C(=O)N[C@@H](CCC(=O)O)C(=O)N[C@@H](Cc1c[nH]c2ccccc12)C(=O)N[C@@H](CCCNC(=N)N)C(=O)N[C@@H](CS)C(=O)N[C@@H](CC(=O)O)C(=O)NCC(=O)N[C@@H](Cc1ccccc1)C(=O)N1CCC[C@H]1C(=O)N[C@@H](CC(=O)O)C(=O)N[C@@H](CS)C(=O)N[C@@H](CC(C)C)C(=O)N[C@@H](CC(=O)O)C(=O)N[C@@H](CCC(=O)O)C(=O)N[C@@H](CO)C(=O)N[C@@H](CC(=O)O)C(=O)N[C@@H](CCC(=O)O)C(=O)N[C@@H](CCCCN)C(=O)NCC(=O)N[C@@H](CS)C(=O)NCC(=O)NCC(=O)NCC(=O)NCC(=O)O (H-CPVSYFQCRNHPHCYPMEWRCDGFPDCLDESDEKGCGGGG-OH) |
| 8.52 to 9.10 | Active | Active | – | – | CC[C@H](C)[C@H](NC(=O)[C@H](CS)NC(=O)[C@H](CC(=O)O)NC(=O)[C@@H]1CCCN1C(=O)[C@H](Cc1ccccc1)NC(=O)CNC(=O)[C@H](CC(=O)O)NC(=O)[C@H](CS)NC(=O)[C@H](CCCNC(=N)N)NC(=O)[C@H](Cc1c[nH]c2ccccc12)NC(=O)[C@H](CCC(=O)O)NC(=O)[C@H](CCSC)NC(=O)[C@@H]1CCCN1C(=O)[C@H](Cc1ccc(O)cc1)NC(=O)[C@H](CS)NC(=O)[C@H](Cc1cnc[nH]1)NC(=O)[C@H](CCCCN)NC(=O)[C@H](Cc1ccc(O)cc1)NC(=O)[C@H](CCC(=O)O)NC(=O)[C@H](CCCNC(=N)N)NC(=O)[C@H](CS)NC(=O)[C@H](CCC(N)=O)NC(=O)[C@H](Cc1ccccc1)NC(=O)[C@H](Cc1ccc(O)cc1)NC(=O)[C@H](CO)NC(=O)[C@H](CCC(=O)O)NC(=O)[C@@H]1CCCN1C(=O)[C@@H](N)CS)C(=O)N[C@@H](CC(=O)O)C(=O)N[C@@H](CO)C(=O)N[C@@H](CO)C(=O)N[C@@H](CC(=O)O)C(=O)N[C@@H](CCC(=O)O)C(=O)N[C@H](C(=O)N[C@@H](CC(=O)O)C(=O)N[C@@H](CS)C(=O)NCC(=O)NCC(=O)NCC(=O)NCC(=O)O)[C@@H](C)O (H-CPESYFQCREYKHCYPMEWRCDGFPDCIDSSDETDCGGGG-OH) |
| 8.52 to 9.10 | Active | Active | – | – | CC[C@H](C)[C@H](NC(=O)[C@H](CS)NC(=O)[C@H](CC(=O)O)NC(=O)[C@@H]1CCCN1C(=O)[C@H](Cc1ccccc1)NC(=O)CNC(=O)[C@H](CC(=O)O)NC(=O)[C@H](CS)NC(=O)[C@H](CCCNC(=N)N)NC(=O)[C@H](Cc1c[nH]c2ccccc12)NC(=O)[C@H](CCC(=O)O)NC(=O)[C@H](CCSC)NC(=O)[C@@H]1CCCN1C(=O)[C@H](Cc1ccc(O)cc1)NC(=O)[C@H](CS)NC(=O)[C@H](Cc1cnc[nH]1)NC(=O)[C@@H]1CCCN1C(=O)[C@H](Cc1cnc[nH]1)NC(=O)[C@H](Cc1c[nH]c2ccccc12)NC(=O)[C@H](CCCNC(=N)N)NC(=O)[C@H](CS)NC(=O)[C@H](CCC(N)=O)NC(=O)[C@H](Cc1ccccc1)NC(=O)[C@H](Cc1ccc(O)cc1)NC(=O)[C@H](CO)NC(=O)[C@H](C)NC(=O)[C@@H]1CCCN1C(=O)[C@@H](N)CS)C(=O)N[C@@H](CC(=O)O)C(=O)NCC(=O)N[C@@H](CO)C(=O)N[C@@H](CC(=O)O)C(=O)N[C@@H](CCC(=O)O)C(=O)N[C@@H](CCC(=O)O)C(=O)N[C@@H](CO)C(=O)N[C@@H](CS)C(=O)NCC(=O)NCC(=O)NCC(=O)NCC(=O)O (H-CPASYFQCRWHPHCYPMEWRCDGFPDCIDGSDEESCGGGG-OH) |
| – | – | – | ≥ 9.00 | ≥ 9.00 | CSCC[C@H](NC(=O)[C@@H]1CCCN1C(=O)[C@H](Cc1ccc(O)cc1)NC(=O)[C@H](CS)NC(=O)[C@H](Cc1cnc[nH]1)NC(=O)[C@H](CC(N)=O)NC(=O)[C@H](CCCCN)NC(=O)[C@H](CC(N)=O)NC(=O)[C@H](CCCNC(=N)N)NC(=O)[C@H](CS)NC(=O)[C@H](CCCCN)NC(=O)[C@H](Cc1ccccc1)NC(=O)[C@H](Cc1ccc(O)cc1)NC(=O)[C@H](CO)NC(=O)[C@@H](NC(=O)[C@@H]1CCCN1C(=O)[C@@H](N)CS)C(C)C)C(=O)N[C@@H](CCC(=O)O)C(=O)N[C@@H](Cc1c[nH]c2ccccc12)C(=O)N[C@@H](CCCNC(=N)N)C(=O)N[C@@H](CS)C(=O)N[C@@H](CC(=O)O)C(=O)NCC(=O)N[C@@H](Cc1ccccc1)C(=O)N1CCC[C@H]1C(=O)N[C@@H](CC(=O)O)C(=O)N[C@@H](CS)C(=O)N[C@@H](CCC(=O)O)C(=O)N[C@@H](CC(=O)O)C(=O)NCC(=O)N[C@@H](CO)C(=O)N[C@@H](CC(=O)O)C(=O)N[C@@H](CCC(=O)O)C(=O)N[C@@H](CCCCN)C(=O)NCC(=O)N[C@@H](CS)C(=O)N1CCC[C@H]1C(=O)N[C@@H](Cc1ccc(O)cc1)C(=O)N[C@@H](CCCNC(=N)N)C(=O)N[C@H](C(=O)O)[C@@H](C)O (H-CPVSYFKCRNKNHCYPMEWRCDGFPDCEDGSDEKGCPYRT-OH) |
| – | – | – | ≥ 9.00 | ≥ 9.00 | CSCC[C@H](NC(=O)[C@@H]1CCCN1C(=O)[C@H](Cc1ccc(O)cc1)NC(=O)[C@H](CS)NC(=O)[C@H](Cc1cnc[nH]1)NC(=O)[C@@H]1CCCN1C(=O)[C@H](Cc1cnc[nH]1)NC(=O)[C@H](CCCCN)NC(=O)[C@H](CC(C)C)NC(=O)[C@H](CS)NC(=O)[C@H](CCC(N)=O)NC(=O)[C@H](Cc1ccccc1)NC(=O)[C@H](Cc1ccc(O)cc1)NC(=O)[C@H](CO)NC(=O)[C@H](C)NC(=O)[C@@H]1CCCN1C(=O)[C@@H](N)CS)C(=O)N[C@@H](CCC(=O)O)C(=O)N[C@@H](Cc1c[nH]c2ccccc12)C(=O)N[C@@H](CCCNC(=N)N)C(=O)N[C@@H](CS)C(=O)N[C@@H](CC(=O)O)C(=O)NCC(=O)N[C@@H](Cc1ccccc1)C(=O)N[C@@H](CC(=O)O)C(=O)N[C@@H](CC(=O)O)C(=O)N[C@@H](CS)C(=O)N[C@@H](CCC(=O)O)C(=O)N[C@@H](CC(=O)O)C(=O)NCC(=O)N[C@@H](CO)C(=O)N[C@@H](CC(=O)O)C(=O)N[C@@H](CCC(=O)O)C(=O)N[C@H](C(=O)NCC(=O)N[C@@H](CS)C(=O)N1CCC[C@H]1C(=O)N[C@@H](Cc1ccc(O)cc1)C(=O)N[C@@H](CCCNC(=N)N)C(=O)N[C@H](C(=O)O)[C@@H](C)O)[C@@H](C)O (H-CPASYFQCLKHPHCYPMEWRCDGFDDCEDGSDETGCPYRT-OH) |
